The target in one experiment is T1, CDK2/Cyclin E (Homo sapiens, UniProt P24941).
T1 construct: purchased Eurofins 14-475
The experiment in a line: Enzymatic phosphorylation activity assay (Caliper mobility shift), CDK2/Cyclin E. Format: biochemical. How it is done: (§1) Inhibitory effects of the compounds of the disclosure were measured in biochemical assays that measure the enzymatic phosphorylation activity of CDK enzyme in complex of Cyclin proteins phosphorylates 7.5 micromolar fluorescently labelled peptide substrate, 5-FAM-QSPKKG-CONH2, (FL-Peptide 18, Perkin Elmer, 760362) in the presence of adenosine-5′-triphosphate (ATP) and varying concentrations of the test compound in 100 mM 2-[4-(2-hydroxyethyl)piperazin-1-yl] ethanesulfonic acid (HEPES), pH 7.5, 10 mM MgCl2, 0.015% Brij-35, 1 mM dithiothreitol (DTT), 1.0% dimehylsulfoxide (DMSO). […] Reactions proceeded until between 10% to 20% total peptides were phosphorylated at room temperature (25° C.) and were terminated with 35 mM 2,2′,2″,2″-(ethane-1,2-diyldinitrilo)tetraacetic acid (EDTA). Product was detected using the Caliper mobility shift detection method where the phosphorylated peptide (product) and substrate were electrophoretically separated and measured. Percent activity was plotted against log concentration of compound and points to generate an apparent IC50. The following CDK enzymes in complex with different cyclin proteins were used in these assays: • CDK1/Cyclin B1, GST-tag (BPS, 40454), 1.5 nM used in the assay • CDK2/Cyclin E (Eurofins, 14-475), 1.25 nM used in the assays

The next experiment deals with T2, CDK1/Cyclin B1, GST-tag (Homo sapiens, UniProt P06493).
T2 construct: GST; purchased BPS 40454
T2 sequence (P06493 whole entry): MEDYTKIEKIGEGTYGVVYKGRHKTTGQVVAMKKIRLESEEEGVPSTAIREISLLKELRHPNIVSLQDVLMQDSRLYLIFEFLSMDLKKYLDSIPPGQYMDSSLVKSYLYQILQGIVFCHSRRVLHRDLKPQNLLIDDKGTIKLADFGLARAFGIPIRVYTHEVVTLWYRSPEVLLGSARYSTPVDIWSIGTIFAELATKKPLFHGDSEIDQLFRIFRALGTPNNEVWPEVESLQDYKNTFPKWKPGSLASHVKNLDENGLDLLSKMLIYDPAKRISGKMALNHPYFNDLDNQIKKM
T2 sequence (P14635 whole entry partner): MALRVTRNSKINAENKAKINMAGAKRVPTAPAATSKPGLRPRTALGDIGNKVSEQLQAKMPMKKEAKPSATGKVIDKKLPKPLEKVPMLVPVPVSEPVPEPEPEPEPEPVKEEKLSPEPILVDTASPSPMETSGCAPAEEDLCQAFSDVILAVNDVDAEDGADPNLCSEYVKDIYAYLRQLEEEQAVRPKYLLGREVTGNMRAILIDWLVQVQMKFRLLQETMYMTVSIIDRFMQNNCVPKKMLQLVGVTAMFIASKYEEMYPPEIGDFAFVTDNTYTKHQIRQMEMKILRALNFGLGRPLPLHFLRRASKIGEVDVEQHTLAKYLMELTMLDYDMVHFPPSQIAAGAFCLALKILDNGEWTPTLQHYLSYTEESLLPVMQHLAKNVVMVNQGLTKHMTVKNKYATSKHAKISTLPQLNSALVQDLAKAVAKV
As to the kind of experiment: Enzymatic phosphorylation activity assay (Caliper mobility shift), CDK1/Cyclin B1. In kind it is biochemical. How it is done: as §1

Another experiment has as its target T3, CDK2/Cyclin E1 (Homo sapiens, UniProt P24941).
T3 construct: NV2641; host or cells: HEK-293
As to the kind of experiment: NanoBRET cellular target engagement assay, CDK2/Cyclin E1 in HEK-293 cells. The note with it: HEK-293 cells transfected with CDK2-NanoLuc and CCNE1; tracer K10 0.5 μM; 2 hrs. In kind it is cell-based. How it is done:
(§2) In the assay, HEK-293 cells were cultured to appropriate confluence before being transiently transfected with a mix of CDK2-NanoLuc® Fusion Vector (Promega, NV2781) and CCNE1 expression vector (Promega, NV2641) for CDK2 NanoBRET assays, or CDK1-NanoLuc® Fusion Vector (Promega, NV2701) and CCNB1 expression vector (Promega, NV2601) for CDK1 NanoBRET assay, by using lipid: DNA complexes formed with FuGENE HD transfection agent (Promega, E2311). The transfected cells were cultured overnight in 1% FBS Opti-MEM media to allow the expression to fully occur. Once the expression fully occurred, varying concentrations of the test compounds were added to the cells, before a cell-permeable, fluorescent tracer (tracer K10 from Promega, N2840) was added to achieve final tracer concentration of 0.5 μM. After the addition of Nano-Glo substrate (part of a kit, Promega, N2840) and Extracellular NanoLuc inhibitor (part of a kit, Promega, N2840) 2 hrs after tracer addition, the cellular engagement of the tracer and the competition with testing compounds to the target protein was assessed based on the resulting bioluminescence resonance energy transfer (BRET) signal. BRET ratio was generated by dividing the acceptor emission signal (610 nm) by the donor emission signal (450 nm) for each sample. […] All IC50 curves were calculated using a 4 parameter logistic nonlinear regression model.

The target of a further experiment is T4, CDK1/Cyclin B (Homo sapiens, UniProt P06493).
T4 construct: NV2601; host or cells: HEK-293
T4 sequence (P06493 whole entry): as the sequence (P06493 whole entry) above
T4 sequence (P14635 whole entry partner): as the sequence (P14635 whole entry partner) above
As to the kind of experiment: NanoBRET cellular target engagement assay, CDK1/Cyclin B in HEK-293 cells. Format: cell-based. The note with it: HEK-293 cells transfected with CDK1-NanoLuc and CCNB1; tracer K10 0.5 μM; 2 hrs. How it is done:
as §2
Background: Bioluminescence resonance energy transfer reports proximity on the nanometre scale.

Setting [1] is: read-out: Enzyme CDK2/cyclin E IC50.
Setting [2] is: read-out: Enzyme CDK1/cyclin B1 IC50.

Like-named read-outs stand apart in the source and are kept apart here.

As for `CC(C)c1cc(Nc2cnc3ccn(CC4CCOCC4)c3n2)n[nH]1` [Example 1, N-(5-isopropyl-1H-pyrazol-3-yl)-5-((tetrahydro-2H-pyran-4-yl)methyl)-5H-pyrrolo[2,3-b]pyrazin-3-amine], the IC50 came to 0.44 nM on CDK2/Cyclin E (setting [1]) and 115 nM at CDK1/Cyclin B1, GST-tag (setting [2]).
Turning to `FC(F)Oc1cc(Nc2cnc3ccn(CC4CCOCC4)c3n2)n[nH]1` [Example 2, N-(5-(difluoromethoxy)-1H-pyrazol-3-yl)-5-((tetrahydro-2H-pyran-4-yl)methyl)-5H-pyrrolo[2,3-b]pyrazin-3-amine], the IC50 came to 0.71 nM on CDK2/Cyclin E (setting [1]) and 163 nM on CDK1/Cyclin B1, GST-tag (setting [2]).
Taken in the same sequence, the figures for `CC(C)c1cc(Nc2cnc3ccn([C@@H](C)c4cccnc4)c3n2)n[nH]1` [Example 3, (S)—N-(5-isopropyl-1H-pyrazol-3-yl)-5-(1-(pyridin-3-yl)ethyl)-5H-pyrrolo[2,3-b]pyrazin-3-amine] were 0.03 nM and 40 nM.
Taken in the same sequence, the figures for `CC(C)c1cc(Nc2cnc3ccn([C@H](C)c4cccnc4)c3n2)n[nH]1` [Example 4, (R)—N-(5-isopropyl-1H-pyrazol-3-yl)-5-(1-(pyridin-3-yl)ethyl)-5H-pyrrolo[2,3-b]pyrazin-3-amine] were 0.31 nM and 54 nM.
On to `C[C@@H](c1cccnc1)n1ccc2ncc(Nc3cc(OC(F)F)[nH]n3)nc21` [Example 5, (S)—N-(5-(difluoromethoxy)-1H-pyrazol-3-yl)-5-(1-(pyridin-3-yl)ethyl)-5H-pyrrolo[2,3-b]pyrazin-3-amine], for which the IC50 at CDK2/Cyclin E (setting [1]) worked out at 0.22 nM; at CDK1/Cyclin B1, GST-tag (setting [2]), 224 nM.
As to `c1cncc(Cn2ccc3ncc(Nc4cc(C5COC5)[nH]n4)nc32)c1` [Example 16, N-(5-(oxetan-3-yl)-1H-pyrazol-3-yl)-5-(pyridin-3-ylmethyl)-5H-pyrrolo[2,3-b]pyrazin-3-amine], the IC50 worked out at 10.9 nM against CDK2/Cyclin E1 and 291 nM against CDK1/Cyclin B.
Taken in the same sequence, the figures for `COc1cc(Nc2cnc3ccn(Cc4cccnc4)c3n2)n[nH]1` [Example 18, N-(5-methoxy-1H-pyrazol-3-yl)-5-(pyridin-3-ylmethyl)-5H-pyrrolo[2,3-b]pyrazin-3-amine] were 10.3 nM and 660 nM.
Consider `Cc1cc(Nc2cnc3ccn(Cc4cccnc4)c3n2)n[nH]1` [Example 19, N-(5-methyl-1H-pyrazol-3-yl)-5-(pyridin-3-ylmethyl)-5H-pyrrolo[2,3-b]pyrazin-3-amine], for which the IC50 against CDK2/Cyclin E1 is 35.7 nM; against CDK1/Cyclin B it was 4450 nM.
With `N#Cc1cc(Nc2cnc3ccn(Cc4cccnc4)c3n2)n[nH]1` [Example 20, 3-((5-(pyridin-3-ylmethyl)-5H-pyrrolo[2,3-b]pyrazin-3-yl)amino)-1H-pyrazole-5-carbonitrile], the IC50 is 112 nM against CDK2/Cyclin E1 and 7560 nM against CDK1/Cyclin B.
Turning to `COc1cc(Nc2cnc3ccn(C[C@H]4CCCN(C)C4)c3n2)n[nH]1` [Example 21, (S)—N-(5-methoxy-1H-pyrazol-3-yl)-5-((1-methylpiperidin-3-yl)methyl)-5H-pyrrolo[2,3-b]pyrazin-3-amine], the IC50 is 1630 nM against CDK2/Cyclin E1 and more than 10000 nM against CDK1/Cyclin B.
Turning to `COc1cc(Nc2cnc3ccn(Cc4cccnn4)c3n2)n[nH]1` [Example 22, N-(5-methoxy-1H-pyrazol-3-yl)-5-(pyridazin-3-ylmethyl)-5H-pyrrolo[2,3-b]pyrazin-3-amine], the figures for the IC50 on CDK2/Cyclin E1 and against CDK1/Cyclin B were 6.9 nM and 207 nM, respectively.
Taken in the same sequence, the figures for `c1cnnc(Cn2ccc3ncc(Nc4cc(C5COC5)[nH]n4)nc32)c1` [Example 23, N-(5-(oxetan-3-yl)-1H-pyrazol-3-yl)-5-(pyridazin-3-ylmethyl)-5H-pyrrolo[2,3-b]pyrazin-3-amine] were 110 nM and 1300 nM.
Taken in the same sequence, the figures for `Cc1cc(Nc2cnc3ccn(Cc4cccnn4)c3n2)n[nH]1` [Example 24, N-(5-methyl-1H-pyrazol-3-yl)-5-(pyridazin-3-ylmethyl)-5H-pyrrolo[2,3-b]pyrazin-3-amine] were 105 nM and 3820 nM.
In the case of `FC(F)Oc1cc(Nc2cnc3ccn(C[C@@H]4CCCNC4)c3n2)n[nH]1` [Example 27, (R)—N-(5-(difluoromethoxy)-1H-pyrazol-3-yl)-5-(piperidin-3-ylmethyl)-5H-pyrrolo[2,3-b]pyrazin-3-amine], the IC50 at CDK2/Cyclin E1 amounted to 16.9 nM; against CDK1/Cyclin B it was 3580 nM.
On to `CN1CCC[C@@H](Cn2ccc3ncc(Nc4cc(OC(F)F)[nH]n4)nc32)C1` [Example 28, (R)—N-(5-(difluoromethoxy)-1H-pyrazol-3-yl)-5-((1-methylpiperidin-3-yl)methyl)-5H-pyrrolo[2,3-b]pyrazin-3-amine], for which the figures for the IC50 against CDK2/Cyclin E1 and on CDK1/Cyclin B were 112 nM and 8310 nM, respectively.
Regarding “(S)-7-chloro-N-(5-isopropyl-1H-pyrazol-3-yl)-5-(1-(pyridin-3-yl)ethyl)-5H-pyrrolo[2,3-b]pyrazin-3-amine [Example 6]”, the IC50 was determined as 2.23 nM on CDK2/Cyclin E (apparent IC50, 1.25 nM enzyme, 7.5 micromolar FL-Peptide 18, 1.0 mM ATP or ATP Km, 25° C.) and 869 nM at CDK1/Cyclin B1, GST-tag (apparent IC50, 1.5 nM enzyme, 7.5 micromolar FL-Peptide 18, 1.0 mM ATP or ATP Km, 25° C.).

The record behind these values is patent US20260217719A1, “CDK2 INHIBITORS” (BLUEPRINT MEDICINES CORPORATION, priority 2023, published 2026).
